In series [1] the test system is A549 cells. The note with it: cited from earlier work.
Series [2] deals with A549 cells. As to the kind of experiment: Trypsin resistance assay (cell adherence). Format: cell-based, human. The method, then:
Cells susceptibility to detachment upon incubation with the studied compounds was evaluated by checking their resistance to trypsin treatment. Cells were seeded into 96-well plate with the density of 3 × 10^4 cells per cm^2 in complete medium and cultured for 24 h. Then, cells were incubated with various concentrations of the studied compounds for 24 h. Subsequently, the cells were washed and 30 µL trypsin solution (0.05%) was added to each well for 10 min incubation at 37 °C. Next, cells were washed with PBS and Alamar Blue assay was performed to quantify adherent cells. The received results were normalized with appropriate wells without the trypsin treatment to exclude the possible toxicity of the studied compounds and presented as a percentage of control (untreated) cells. Experiments were performed in triplicates and each experiment was repeated five times to obtain mean values and standard error of the mean.

Series [3] concerns A549 cells. As to the kind of experiment: Cytotoxicity, MTT assay. Format: cell-based, human. On the procedure:
In vitro studies were conducted using human lung adenocarcinoma A549 cell line. Cells were routinely cultured in Dulbecco’s Modified Eagle Medium (DMEM, Corning, Corning, NY, USA) supplemented with 10% fetal bovine serum (FBS, Eurx, Gdańsk, Poland) (v/v) and 1% penicillin-streptomycin (100 units/mL–100µg/mL, Corning) (v/v) and incubated at 37 °C in humidified atmosphere with 5% CO2 (v/v). The cytotoxicity of the Ru(II) complexes was evaluated using MTT assay (Sigma-Aldrich). Cells were seeded into 96-well plate with the density of 3 × 10^4 cells per cm^2 in complete medium and cultured for 24 h. Then medium was removed and various concentrations of the studied compounds in basic medium were added. The final DMSO concentration in cell culture was fixed at 0.1% (v/v). […] After the incubation, MTT was removed, and the formed violet formazan crystals were dissolved in the 100 µL of DMSO:methanol (1:1) mixture. […] Experiments were performed in triplicates and repeated three times.

Series [4] addresses T1, MMP-9 (Homo sapiens, UniProt P14780).
T1 construct: purchased Sigma-Aldrich
Nature of the series: MMP-9 inhibition, fluorogenic substrate FS-6. Format: biochemical. The following applies: [FS-6] = 2.5 µM, [enzyme] = 0.5 nM, 0.1 M Tris, pH 7.4, 37 °C, fluorescence assay; n.i. = no inhibition in the studied range (>> 25 µM, for NAMI-A >> 600 µM). The method, then: (§1) MMP-9 and MMP-2 were activated at 4 °C using 1 mM APMA overnight before the experiments. MMP-2 and MMP-9 assays were performed in 0.1 M Tris/HCl (pH 7.4, 37 °C) enriched with 0.1 M NaCl, 10 mM CaCl2, 0.1 mM ZnCl2 and 0.05% Brij35. […] Kinetic fluorescence measurements were performed using a Perkin Elmer LS55 spectrofluorimeter (λex/λem = 325/400 nm). The obtained fluorescence intensities were corrected due to inner filter effect according to the following equation [31]: […] where Fobs denotes the measured fluorescence intensity, while Aλem and Aλex are the absorbance of sample at emission and excitation wavelengths.
(§2) The enzyme activity in the presence of inhibitors was expressed as a fraction of initial reaction rate (vi/v0 ratio, v0—initial reaction rate, vi—initial reaction rate in the presence of inhibitor). IC50 parameters were calculated from a dose-response plot of enzyme fractional activity as a function of inhibitor concentration, using the Hill equation (OriginPro2018). Experiments were repeated three times and results are presented as mean values and standard deviation of the mean.

The test system of series [5] is MMP-9. Nature of the series: Western blot, expression of the active form of MMP-9. Type of series: cell-based, human. The note with it: A549 cells, 24 h, 100 µM, normalized to β-actin. On the procedure: A549 cells were seeded in a 25 cm^2 flask with the density of 1.25 × 10^6 cells per flask in complete medium and cultured for 24 h. […] After the incubation, cells were washed with ice-cold PBS and lysed using RIPA buffer containing Halt proteases inhibitor cocktail (Thermo Fisher Scientific). Protein samples (the same concentration per lane) were separated on a 12% sodium dodecyl sulfate polyacrylamide gel. PageRuler™ Prestained Protein Ladder (Thermo Fisher Scientific) was used to determine approximate molecular weights of resolved proteins. Electrophoresis was performed through the stacking gel for 25 min at 60 V and resolving gel for 50 min at 170 V at room temperature using a PowerPac™ Basic Power Supply (Bio-Rad, Inc., Hercules, CA, USA). […] Reactive protein was detected after membrane was washed three times in TBST using GE Healthcare Amersham™ ECL Prime Western Blotting Detection Reagent (GE Healthcare Inc., Chicago, IL, USA). Only one protein was detected at a time, each membrane was stripped in 0.2 M NaOH over 20 min, washed three times in water and blocked again before proceeding with another primary antibody. Data were collected by ChemiDoc XRS+ Imaging System (Bio-Rad, Inc., Hercules, CA, USA) and analyzed with Image Lab v. […]

For the next series, the system named is B16F10 melanoma cells. Set-up: method as in PMID 16368900. The following applies: 100 µM; cited from earlier work.
For a further series, the target named is T2, MMP-2 (Homo sapiens, UniProt P08253).
T2 construct: purchased Sigma-Aldrich
T2 sequence (P08253 110-660): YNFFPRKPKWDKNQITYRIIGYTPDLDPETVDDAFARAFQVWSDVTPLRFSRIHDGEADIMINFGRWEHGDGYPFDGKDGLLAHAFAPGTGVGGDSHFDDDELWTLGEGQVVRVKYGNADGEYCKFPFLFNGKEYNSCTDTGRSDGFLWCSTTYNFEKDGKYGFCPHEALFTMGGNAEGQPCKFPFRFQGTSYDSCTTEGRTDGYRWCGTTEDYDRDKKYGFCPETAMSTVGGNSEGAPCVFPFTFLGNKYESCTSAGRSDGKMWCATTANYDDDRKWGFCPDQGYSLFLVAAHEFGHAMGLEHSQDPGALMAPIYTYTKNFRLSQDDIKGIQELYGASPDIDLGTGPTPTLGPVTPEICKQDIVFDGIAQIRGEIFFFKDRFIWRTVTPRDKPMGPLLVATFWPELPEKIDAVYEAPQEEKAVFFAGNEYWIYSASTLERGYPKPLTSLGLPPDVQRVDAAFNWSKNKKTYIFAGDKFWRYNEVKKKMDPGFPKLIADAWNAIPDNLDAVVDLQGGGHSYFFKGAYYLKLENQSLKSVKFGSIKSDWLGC
Nature of the series: MMP-2 inhibition, fluorogenic substrate FS-6. Type of series: biochemical. The note with it: [FS-6] = 2.5 µM, [enzyme] = 0.5 nM, 0.1 M Tris, pH 7.4, 37 °C; n.i. = no inhibition in the studied range (>> 25 µM, for NAMI-A >> 600 µM). On the procedure:
as §1, §2

Series [6] relates to A549 cells. As to the kind of experiment: Cellular uptake of ruthenium (ICP-MS). Format: cell-based, human. The note with it: 1 µM complex, 24 h. On the procedure: For cellular uptake A549 cells were seeded in a 6-well plate with the density of 4 × 10^4 cells per cm^2 in complete medium and cultured for 24 h. […] Any dead cells were eliminated by washing cells’ monolayer with PBS. Subsequently, the incubated cells were washed, detached by trypsin treatment and counted. The cells were isolated by centrifugation and digested in concentrated nitric acid overnight at room temperature. The solutions were diluted with Millipore water to a final nitric acid concentration of 2%. The Ru content in the samples was measured by inductively coupled plasma mass spectrometry (ICP-MS) using NexION 2000C (Perkin Elmer). Experiments were repeated three times. Results were calculated as ruthenium concentration per cell and presented as mean values and standard deviation of mean. Similarly, the content of Ru ions was measured in subcellular fraction obtained as described in chapter 4.5.

Here are results for five molecules from publication PMC8538513, “Inhibition of Matrix Metalloproteinases and Cancer Cell Detachment by Ru(II) Polypyridyl Complexes Containing 4,7-Diphenyl-1,10-phenanthroline Ligands—New Candidates for Antimetastatic Agents” (Pharmaceuticals, 2021).

T1 sequence (P14780 107-707 limits assumed): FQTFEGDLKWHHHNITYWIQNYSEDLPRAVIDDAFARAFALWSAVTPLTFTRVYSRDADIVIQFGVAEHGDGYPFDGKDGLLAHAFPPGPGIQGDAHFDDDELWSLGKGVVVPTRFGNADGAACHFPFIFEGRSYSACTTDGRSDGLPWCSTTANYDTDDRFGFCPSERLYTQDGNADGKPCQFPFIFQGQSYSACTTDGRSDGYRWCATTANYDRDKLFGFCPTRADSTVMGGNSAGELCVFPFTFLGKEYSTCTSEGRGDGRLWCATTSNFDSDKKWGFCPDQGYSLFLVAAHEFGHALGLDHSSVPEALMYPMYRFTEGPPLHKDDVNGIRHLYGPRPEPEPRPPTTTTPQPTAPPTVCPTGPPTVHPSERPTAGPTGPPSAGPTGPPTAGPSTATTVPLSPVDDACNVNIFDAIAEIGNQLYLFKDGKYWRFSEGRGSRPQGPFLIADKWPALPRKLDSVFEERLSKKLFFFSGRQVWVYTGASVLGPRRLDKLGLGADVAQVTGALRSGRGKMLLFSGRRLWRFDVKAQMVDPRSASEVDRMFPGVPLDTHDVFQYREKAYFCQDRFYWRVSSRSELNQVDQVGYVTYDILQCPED

Take `N.N.[Cl][Pt][Cl]` [cisplatin]: the IC50 in the series on A549 cells [1] was 70 µM.

Consider `CNC(=O)[C@H](Cc1c[nH]c2ccccc12)NC(=O)[C@@H](CC(=O)NO)CC(C)C` [GM6001], for which, in the series on A549 cells [2] (GM6001 1–8 µM), the “Effect on cell adhesion properties (in words)” value is given as “no alteration in cell adhesion properties was observed”. Moreover, the “Toxicity at the concentration used” value in the series on A549 cells [3] (1–8 µM) is “non-toxic concentration”.

For the molecule `CS(C)=O.[Cl-].[Cl-].[Cl-].[Cl-].[Ru+3].c1c[nH+]c[nH]1.c1c[nH]cn1` [NAMI-A, trans-[tetrachlorido(1H-imidazole)(S-dimethylsulphoxide)ruthenate(III)]], the “IC50 for MMP-9” value against MMP-9 [4] is “no inhibitory properties and n.i”. In addition, in the series on MMP-9 [5], the “Reduction of expression of active MMP-9” value is 43%. In the series with A549 cells [2] (NAMI-A 100 µM), the “Cell adherence (adhesion strength) compared to control” value was “ca. 250%”. Also, the “Adhesion strength vs. control” value with B16F10 melanoma cells is listed as “up to 162 % vs. control”. Besides, on MMP-2, the “IC50 for MMP-2” value is “no inhibitory properties and n.i”.

In the case of `[Ru+2].c1ccc(-c2ccnc3c2ccc2c(-c4ccccc4)ccnc23)cc1.c1ccc(-c2ccnc3c2ccc2c(-c4ccccc4)ccnc23)cc1.c1ccc(-c2ccnc3c2ccc2c(-c4ccccc4)ccnc23)cc1` [[Ru(dip)3]^2+], the half-inhibitory concentration (IC50) at MMP-9 [4] turned out to be 4.1 ± 1.6 µM; on MMP-2 it was 8.3 ± 1.1 µM. Also, in the series on A549 cells [2] (24 h, non-toxic concentrations, effect seen from 1 µM), the “Effect on cell adhesion / cell detachment (in words)” value is given as “high activity in inhibiting of cell detachment”. Further, the “Cytotoxicity (IC50)” value in the series on A549 cells [3] (24 h incubation, MTT) is “most cytotoxic compound”. The “Increase of ruthenium concentration in a cell (uptake)” value in the series on A549 cells [6] was “highest uptake by cells”.

Take `[Ru+2].c1ccc(-c2ccccn2)nc1.c1ccc(-c2ccnc3c2ccc2c(-c4ccccc4)ccnc23)cc1.c1ccc(-c2ccnc3c2ccc2c(-c4ccccc4)ccnc23)cc1` [[Ru(dip)2(bpy)]^2+]: the half-maximal inhibitory concentration (IC50) is 6.2 ± 2.8 µM against MMP-9 [4] and 22.5 ± 2 µM at MMP-2.
